# Where “and” joins values, the source holds several entries; their conditions need not be identical. Identical values can stand only once. Inconclusive results and toxic doses are left out. Square brackets hold non-standard residues; d marks the D form. Peptide text beside a SMILES is read from it. * marks the point of attachment. Cbz = O=C(OCc1ccccc1)*; Dha = C=C(N)C(=O)O
# Test system: P388 leukemia ip, CD2F1 mice, survival T/C
# Assay: NCI In Vivo Anticancer Drug Screen. Data for tumor model P388 Leukemia (intraperitoneal) in CD2F1 (CDF1) mice
# Details: endpoint: median survival time, higher = longer survival
# Outline: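 Mice carrying the transplanted tumor received test compound or vehicle. Survival was recorded in each group, and the value is the treated-group measurement divided by that of the vehicle-treated control group.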
# [1] = dose: 100.0 mg/kg/injection, schedule: Q01DX001 (ip), vehicle: Klucel (hydroxypropylcellulose) (HPC)
# [2] = dose: 200.0 mg/kg/injection, schedule: Q01DX001 (ip), vehicle: Klucel (hydroxypropylcellulose) (HPC)
# [3] = dose: 100.0 mg/kg/injection, schedule: Q04DX003 (ip), vehicle: saline
# [4] = dose: 200.0 mg/kg/injection, schedule: Q04DX003 (ip), vehicle: saline
# [5] = dose: 400.0 mg/kg/injection, schedule: Q04DX003 (ip), vehicle: saline
# [6] = dose: 50.0 mg/kg/injection, schedule: Q01DX005 (ip), vehicle: saline with Tween-80
# [7] = dose: 100.0 mg/kg/injection, schedule: Q01DX005 (ip), vehicle: saline with Tween-80
# [8] = dose: 200.0 mg/kg/injection, schedule: Q01DX005 (ip), vehicle: saline with Tween-80
# [9] = dose: 60.0 mg/kg/injection, schedule: Q01DX005 (ip), vehicle: Klucel (hydroxypropylcellulose) (HPC)
# [10] = dose: 120.0 mg/kg/injection, schedule: Q01DX005 (ip), vehicle: Klucel (hydroxypropylcellulose) (HPC)
# [11] = dose: 50.0 mg/kg/injection, schedule: Q01DX009 (ip), vehicle: saline with Tween-80
# [12] = dose: 100.0 mg/kg/injection, schedule: Q01DX009 (ip), vehicle: saline with Tween-80
# [13] = dose: 200.0 mg/kg/injection, schedule: Q01DX009 (ip), vehicle: saline with Tween-80
# [14] = dose: 12.5 mg/kg/injection, schedule: Q04DX003 (ip), vehicle: saline with Tween-80
# [15] = dose: 25.0 mg/kg/injection, schedule: Q04DX003 (ip), vehicle: saline with Tween-80
# [16] = dose: 50.0 mg/kg/injection, schedule: Q04DX003 (ip), vehicle: saline with Tween-80
# [17] = dose: 60.0 mg/kg/injection, schedule: Q01DX005 (ip), vehicle: saline with Tween-80
# [18] = dose: 120.0 mg/kg/injection, schedule: Q01DX005 (ip), vehicle: saline with Tween-80
# [19] = dose: 240.0 mg/kg/injection, schedule: Q01DX005 (ip), vehicle: saline with Tween-80
structure (smiles),measurement,setting,value
O=CN1CCCC1Cc1ccc2ccccc2c1 (stereo not drawn),T/C,"dose: 50.0 mg/kg/injection, schedule: Q01DX001 (ip), vehicle: Klucel (hydroxypropylcellulose) (HPC)",107 % of control
same,T/C,[1],98 % of control
same,T/C,[2],101 % of control
Cc1cc2c(cc1C)C(=O)C(CN1CCCCC1)CO2 (stereo not drawn),T/C,"dose: 100.0 mg/kg/injection, schedule: Q01DX001 (ip), vehicle: saline",107 % of control
same,T/C,"dose: 200.0 mg/kg/injection, schedule: Q01DX001 (ip), vehicle: saline",104 % of control
CCc1c(O)c2c([nH]c1=O)SC(C)(C)CC2=NCC(C)C,T/C,"dose: 50.0 mg/kg/injection, schedule: Q01DX005 (ip), vehicle: saline",93 % of control
same,T/C,"dose: 100.0 mg/kg/injection, schedule: Q01DX005 (ip), vehicle: saline",96 % of control
same,T/C,"dose: 200.0 mg/kg/injection, schedule: Q01DX005 (ip), vehicle: saline",94 % of control
COC(=O)Nc1nc2ccc(C(=O)OC)cc2[nH]1,T/C,[3],102 % of control
same,T/C,[4],103 % of control
same,T/C,[5],103 % of control
c1ccc(CN2CO[C@@H]3CCCCC[C@H]32)cc1,T/C,[1],101 % of control
same,T/C,"dose: 100.0 mg/kg/injection, schedule: Q04DX002 (ip), vehicle: Klucel (hydroxypropylcellulose) (HPC)",99 % of control
same,T/C,[2],102 % of control
same,T/C,"dose: 200.0 mg/kg/injection, schedule: Q04DX002 (ip), vehicle: Klucel (hydroxypropylcellulose) (HPC)",115 % of control
same,T/C,"dose: 400.0 mg/kg/injection, schedule: Q01DX001 (ip), vehicle: Klucel (hydroxypropylcellulose) (HPC)",98 % of control
same,T/C,"dose: 400.0 mg/kg/injection, schedule: Q04DX002 (ip), vehicle: Klucel (hydroxypropylcellulose) (HPC)",124 % of control
O=[N+]([O-])c1cccc(S(=O)(=O)N/N=C\c2cc([N+](=O)[O-])ccc2O)c1,T/C,[6],107 % of control
same,T/C,[7],100 % of control
same,T/C,[8],97 % of control
COC1=C(C)C(=O)C2=C(C1=O)[C@@H]1[C@@H]3Cc4c(OC(=O)CO)c(C)c(OC)c(O)c4[C@H](CNC(=O)C(C)=O)N3[C@@H](C#N)[C@H](C2)N1C,T/C,"dose: 0.63 mg/kg/injection, schedule: Q01DX005 (ip), vehicle: Klucel (hydroxypropylcellulose) (HPC)",106 % of control
same,T/C,"dose: 1.25 mg/kg/injection, schedule: Q01DX005 (ip), vehicle: Klucel (hydroxypropylcellulose) (HPC)",115 % of control
same,T/C,"dose: 2.25 mg/kg/injection, schedule: Q01DX005 (ip), vehicle: Klucel (hydroxypropylcellulose) (HPC)",120 % of control
same,T/C,"dose: 2.5 mg/kg/injection, schedule: Q01DX005 (ip), vehicle: Klucel (hydroxypropylcellulose) (HPC)",115 % of control
same,T/C,"dose: 625.0 micrograms/kg/injection, schedule: Q01DX005 (ip), vehicle: Klucel (hydroxypropylcellulose) (HPC)",103 % of control
same,T/C,"dose: 1250.0 micrograms/kg/injection, schedule: Q01DX005 (ip), vehicle: Klucel (hydroxypropylcellulose) (HPC)",110 % of control
same,T/C,"dose: 2500.0 micrograms/kg/injection, schedule: Q01DX005 (ip), vehicle: Klucel (hydroxypropylcellulose) (HPC)",116 % of control
same,T/C,"dose: 5000.0 micrograms/kg/injection, schedule: Q01DX005 (ip), vehicle: Klucel (hydroxypropylcellulose) (HPC)",118 % of control
COc1ccc(C2CC(C)(O)Oc3cc4c(cc32)OCO4)cc1 (stereo not drawn),T/C,[9],97 % of control
same,T/C,[10],89 % of control
COc1ccc2c(C)cc(N/N=C(\C)c3cn(C)n(-c4ccccc4)c3=O)nc2c1,T/C,"dose: 12.5 mg/kg/injection, schedule: Q01DX005 (ip), vehicle: Klucel (hydroxypropylcellulose) (HPC)",98 % of control
same,T/C,"dose: 25.0 mg/kg/injection, schedule: Q01DX005 (ip), vehicle: Klucel (hydroxypropylcellulose) (HPC)",95 % of control
same,T/C,"dose: 50.0 mg/kg/injection, schedule: Q01DX005 (ip), vehicle: Klucel (hydroxypropylcellulose) (HPC)",101 % of control and 93 % of control
same,T/C,"dose: 100.0 mg/kg/injection, schedule: Q01DX005 (ip), vehicle: Klucel (hydroxypropylcellulose) (HPC)",110 % of control
COc1ccc2nc3cc(Cl)ccc3c(NCCCCN3CCCC3)c2n1,T/C,"dose: 12.5 mg/kg/injection, schedule: Q01DX009 (ip), vehicle: water",101 % of control
same,T/C,"dose: 25.0 mg/kg/injection, schedule: Q01DX009 (ip), vehicle: water",105 % of control
Cc1cccc(/C(=C\c2ccc([N+](=O)[O-])cc2)C(=O)Nc2ccc(S(=O)(=O)F)c(C)c2)c1,T/C,[9],88 % of control
same,T/C,[10],86 % of control
O=C1/C(=C/c2ccccc2O)SC(=S)N1C1CC1,T/C,[11],100 % of control
same,T/C,[12],90 % of control
same,T/C,[13],95 % of control
c1cc2c(c(NC3=NCCCO3)c1)CCCC2,T/C,[14],108 % of control
same,T/C,[15],108 % of control
same,T/C,[16],100 % of control
C=CC1CC[N-]CC1.C=CC1CC[N-]CC1.C=CC1CC[N-]CC1.[Cl][Cr]([Cl])[Cl],T/C,[14],100 % of control
same,T/C,[15],100 % of control
same,T/C,[16],100 % of control
OCC1CC2C3CC(CO)C(C3)C2C1 (stereo not drawn),T/C,[17],105 % of control
same,T/C,[18],100 % of control
same,T/C,[19],98 % of control
CCOC(=O)CC1(C)C(=O)CCCC1=O,T/C,[3],101 % of control
same,T/C,[4],100 % of control
same,T/C,[5],100 % of control
C=C(NC(=O)C(C)NC(=O)OCc1ccccc1)C(=O)N1CCCC1C(=O)NC(C)C(=O)NC (stereo not drawn) (Cbz-A[Dha]PA-NHMe; configuration not given here),T/C,"dose: 25.0 mg/kg/injection, schedule: Q01DX009 (ip), vehicle: saline",111 % of control
same,T/C,"dose: 50.0 mg/kg/injection, schedule: Q01DX009 (ip), vehicle: saline",100 % of control
same,T/C,"dose: 100.0 mg/kg/injection, schedule: Q01DX009 (ip), vehicle: saline",96 % of control
CCOC(=O)C(CC)Oc1ccc(Cl)cc1 (stereo not drawn),T/C,"dose: 50.0 mg/kg/injection, schedule: Q01DX009 (ip), vehicle: Klucel (hydroxypropylcellulose) (HPC)",102 % of control
same,T/C,"dose: 100.0 mg/kg/injection, schedule: Q01DX009 (ip), vehicle: Klucel (hydroxypropylcellulose) (HPC)",89 % of control
O=C(O)c1cccc2c1SC(c1ccccc1)OC2=O (stereo not drawn),T/C,"dose: 50.0 mg/kg/injection, schedule: Q01DX005 (ip), vehicle: distilled water + alcohol",103 % of control
same,T/C,"dose: 100.0 mg/kg/injection, schedule: Q01DX005 (ip), vehicle: distilled water + alcohol",99 % of control
same,T/C,"dose: 200.0 mg/kg/injection, schedule: Q01DX005 (ip), vehicle: distilled water + alcohol",109 % of control
CC(=O)Oc1cc2c(cc1C(Nc1ccccn1)c1ccc3c(c1)OCO3)OCO2 (stereo not drawn),T/C,[17],98 % of control
same,T/C,[18],92 % of control
same,T/C,[19],97 % of control
COc1ccc(C2=NC(=O)OC2(C)C)cc1,T/C,[9],110 % of control
same,T/C,[10],102 % of control
same,T/C,"dose: 240.0 mg/kg/injection, schedule: Q01DX005 (ip), vehicle: Klucel (hydroxypropylcellulose) (HPC)",108 % of control
O=C1OC(c2ccc(Cl)cc2)=N/C1=C\c1ccccc1,T/C,[11],120 % of control
same,T/C,[12],90 % of control
same,T/C,[13],100 % of control
S=c1[nH]ncn2nc3ccccc3c12,T/C,[6],100 % of control
same,T/C,[7],97 % of control
same,T/C,[8],97 % of control
COc1cc(C2C(C)=C(C)Oc3cc4c(cc32)OCO4)cc(OC)c1OC (stereo not drawn),T/C,[17],97 % of control
same,T/C,[18],91 % of control
same,T/C,[19],88 % of control
CCC/C=C/C=C/C(=O)OC1/C(=C/C(=O)OC)CC2CC(C(C)O)OC(=O)CC(O)CC3CC(OC(C)=O)C(C)(C)C(O)(CC4C/C(=C/C(=O)OC)CC(/C=C/C(C)(C)C1(O)O2)O4)O3 (stereo not drawn),T/C,"dose: 0.01 mg/kg/injection, schedule: Q01DX009 (ip), vehicle: saline + alcohol",152 % of control
same,T/C,"dose: 0.03 mg/kg/injection, schedule: Q01DX009 (ip), vehicle: saline + alcohol",186 % of control
same,T/C,"dose: 0.07 mg/kg/injection, schedule: Q01DX009 (ip), vehicle: saline + alcohol",163 % of control and 196 % of control
same,T/C,"dose: 0.15 mg/kg/injection, schedule: Q01DX009 (ip), vehicle: saline + alcohol",179 % of control
same,T/C,"dose: 18.75 micrograms/kg/injection, schedule: Q01DX009 (ip), vehicle: saline + alcohol",175 % of control
same,T/C,"dose: 37.5 micrograms/kg/injection, schedule: Q01DX009 (ip), vehicle: saline + alcohol",177 % of control
same,T/C,"dose: 75.0 micrograms/kg/injection, schedule: Q01DX009 (ip), vehicle: saline + alcohol",177 % of control
